Assay results taken from paper PMC3873546, “Two Distinct Determinants of Ligand Specificity in T1R1/T1R3 (the Umami Taste Receptor)” (The Journal of Biological Chemistry, 2013).

What was measured:
[1] = system: T1, hT1R1(m.371–380) (with mT1R3); conditions: pH 7.4, rG15i2, no IMP; orthosteric site agonist
T1 construct: gene TAS1R1

baboon T1R1 (with mT1R3) = system: T2, baboon T1R1 (with mT1R3); conditions: pH 7.4, rG15i2, no IMP; orthosteric site agonist
T2 construct: gene TAS1R1

hT1R1/mT1R3 = target: T3, hT1R1/mT1R3 (Homo sapiens, UniProt Q7RTX1); test: mt-clytin-II Ca2+ luminescence, HEK293T; assay type: cell-based; conditions: dose-response curve and 50 mM response, pH 7.4, no IMP; weak agonist
T3 construct: gene TAS1R1; mixed-species heteromer, full-length human T1R1 (841 residues) with mouse T1R3, pEAK10, HEK293T with rG15i2 and mt-apoclytin-II; with Taste receptor type 1 member 3 (Mus musculus)
T3 sequence (Q7RTX1 21-841): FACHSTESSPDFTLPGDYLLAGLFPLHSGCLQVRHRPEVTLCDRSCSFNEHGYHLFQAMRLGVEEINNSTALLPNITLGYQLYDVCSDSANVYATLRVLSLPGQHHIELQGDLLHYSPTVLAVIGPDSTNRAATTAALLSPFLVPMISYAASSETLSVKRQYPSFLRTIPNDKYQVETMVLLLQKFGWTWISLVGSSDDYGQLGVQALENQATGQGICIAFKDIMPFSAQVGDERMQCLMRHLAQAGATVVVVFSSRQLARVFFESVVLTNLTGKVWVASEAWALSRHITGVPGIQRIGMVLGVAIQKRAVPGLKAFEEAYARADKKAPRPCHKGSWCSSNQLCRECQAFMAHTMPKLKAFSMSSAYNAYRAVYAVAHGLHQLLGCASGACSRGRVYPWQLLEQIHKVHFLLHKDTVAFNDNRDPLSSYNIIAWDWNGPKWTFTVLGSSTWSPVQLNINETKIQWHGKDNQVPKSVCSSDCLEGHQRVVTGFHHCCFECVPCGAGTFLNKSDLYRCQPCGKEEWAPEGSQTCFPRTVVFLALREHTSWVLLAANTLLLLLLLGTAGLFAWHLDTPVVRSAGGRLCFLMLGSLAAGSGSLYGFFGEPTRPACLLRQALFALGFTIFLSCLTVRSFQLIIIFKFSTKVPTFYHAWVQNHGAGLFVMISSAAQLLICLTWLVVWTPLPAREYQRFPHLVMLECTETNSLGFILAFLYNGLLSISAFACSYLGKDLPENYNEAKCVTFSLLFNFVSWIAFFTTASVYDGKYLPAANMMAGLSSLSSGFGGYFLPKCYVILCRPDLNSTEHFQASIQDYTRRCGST
T3 sequence (Q925D8 21-858 partner): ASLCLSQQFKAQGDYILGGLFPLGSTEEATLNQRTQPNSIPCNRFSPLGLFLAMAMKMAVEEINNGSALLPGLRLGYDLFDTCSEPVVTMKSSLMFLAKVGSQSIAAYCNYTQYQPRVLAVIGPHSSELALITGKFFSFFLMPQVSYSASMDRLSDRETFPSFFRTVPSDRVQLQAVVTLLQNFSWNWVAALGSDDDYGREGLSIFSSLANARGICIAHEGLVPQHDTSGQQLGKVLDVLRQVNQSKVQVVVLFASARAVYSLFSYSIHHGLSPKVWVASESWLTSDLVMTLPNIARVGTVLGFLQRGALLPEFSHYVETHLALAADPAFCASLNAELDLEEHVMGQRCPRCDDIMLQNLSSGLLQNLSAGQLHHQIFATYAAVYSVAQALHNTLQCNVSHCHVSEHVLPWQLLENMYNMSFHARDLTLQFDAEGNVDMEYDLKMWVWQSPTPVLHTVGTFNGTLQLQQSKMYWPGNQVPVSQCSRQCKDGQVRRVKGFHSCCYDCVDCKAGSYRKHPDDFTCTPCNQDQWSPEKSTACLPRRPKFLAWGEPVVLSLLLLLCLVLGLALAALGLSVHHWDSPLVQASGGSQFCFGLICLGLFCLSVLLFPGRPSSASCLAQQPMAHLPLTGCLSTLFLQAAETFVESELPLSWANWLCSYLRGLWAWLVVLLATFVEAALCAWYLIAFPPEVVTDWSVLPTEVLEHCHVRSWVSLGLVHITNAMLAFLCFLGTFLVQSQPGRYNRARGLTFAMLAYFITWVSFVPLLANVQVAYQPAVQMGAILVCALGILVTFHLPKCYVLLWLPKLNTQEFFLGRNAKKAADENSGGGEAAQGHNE

[2] = target: T4, squirrel monkey T1R1 (with mT1R3) (Saimiri boliviensis, UniProt A0A2K6TN71); test: mt-clytin-II Ca2+ luminescence, HEK293T; assay type: cell-based; conditions: dose-response curve only, pH 7.4, no IMP
T4 construct: full-length squirrel monkey T1R1 assembled from genomic exons (liver DNA); HEK293T with mouse T1R3; with Taste receptor type 1 member 3 (Mus musculus)
T4 sequence (A0A2K6TN71 21-841): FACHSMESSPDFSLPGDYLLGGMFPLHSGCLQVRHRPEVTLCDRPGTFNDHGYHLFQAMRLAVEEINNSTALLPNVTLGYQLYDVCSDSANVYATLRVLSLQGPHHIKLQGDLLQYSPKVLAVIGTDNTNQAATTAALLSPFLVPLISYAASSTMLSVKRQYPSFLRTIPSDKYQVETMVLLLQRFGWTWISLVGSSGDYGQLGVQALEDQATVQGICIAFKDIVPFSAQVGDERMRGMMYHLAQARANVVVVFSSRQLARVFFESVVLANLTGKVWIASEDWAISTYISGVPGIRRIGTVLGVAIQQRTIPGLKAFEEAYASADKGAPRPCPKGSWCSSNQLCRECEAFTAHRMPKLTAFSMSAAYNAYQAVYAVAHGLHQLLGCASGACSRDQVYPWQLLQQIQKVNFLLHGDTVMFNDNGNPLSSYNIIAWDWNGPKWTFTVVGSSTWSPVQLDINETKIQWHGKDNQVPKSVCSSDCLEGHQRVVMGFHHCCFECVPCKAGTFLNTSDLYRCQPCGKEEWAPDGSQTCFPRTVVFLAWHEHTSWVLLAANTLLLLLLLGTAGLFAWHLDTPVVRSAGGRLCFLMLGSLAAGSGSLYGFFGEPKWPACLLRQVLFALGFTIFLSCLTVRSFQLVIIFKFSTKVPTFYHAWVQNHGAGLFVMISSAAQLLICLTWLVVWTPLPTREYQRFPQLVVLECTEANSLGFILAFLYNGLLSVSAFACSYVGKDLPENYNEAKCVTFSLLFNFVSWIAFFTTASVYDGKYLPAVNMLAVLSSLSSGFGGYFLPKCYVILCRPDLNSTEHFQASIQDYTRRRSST
T4 sequence (Q925D8 21-858 partner): T3 sequence (Q925D8 21-858 partner)

EC50 [1] [µM] | EC50 (baboon T1R1 (with mT1R3)) [µM] | SMILES | mt-clytin-II Ca2+ luminescence, HEK293T (hT1R1/mT1R3) | mt-clytin-II Ca2+ luminescence, HEK293T [2]
110 ± 10 | 1800 ± 400 | N[C@@H](CCC(=O)O)C(=O)O [L-Glu] |  | 
 |  | C[C@H](N)C(=O)O [L-Ala] | the dose-response curves of human (B), macaque (C), baboon (D) | the squirrel monkey T1R1 demonstrated the greatest L-Ala potency among the four primate T1R1 receptors
